Assays:
human platelets = assay: Intracellular Ca2+ mobilization (Fura-2); format: cell-based; settings: ADP 10 μM or U46619 6 μM; extracellular Ca2+ 1 mM
Protocol: Figure 6 Effects of CSL on activation of protein kinase CPKC activation and mobilization of intracellular calcium. (A) Rinsed platelets were incubated with DMSO or CSL (10 or 20 μM) for 10 min at 37 °C, and stimulation of ADP (10 μM, left) or U46619 (6 μM, right) was given for 1 min. The phosphorylation level of MARCKS in the platelets was determined with western blotting. Representative images from each group are shown (n = 3). Densitometric intensities of each signaling pathway component normalized to β-actin or total protein. (B,C) Human platelets preloaded with Fura-2 were incubated with DMSO (D) or CSL with extracellular Ca^2+ (1 mM) for 10 min at 37 °C, and ADP ((B) 10 μM) or U46619 ((C) 6 μM) stimulation was given to induce an increase in [Ca^2+]i. Data are shown as mean values ± SD of five independent experiments. * p < 0.05 vs. ADP (A,B) or U46619 (A,C) alone. D = 0.2% DMSO, used as the vehicle control.
The amount of intracellular Ca^2+ ([Ca^2+]i) of platelets was measured as previously described. […] Grynkiewicz et al. proposed an equation for calculating the [Ca^2+]i by measuring the intensity of fluorescence signals (excitation/emission wavelengths: 339/500 nm) obtained from the platelets.

platelets = assay: P-selectin and PAC-1 expression, flow cytometry; format: cell-based, human; settings: platelets activated by ADP or U46619; CSL 10 or 20 μM
Protocol: Figure 7 Effects of CSL on the expression of P-selectin and PAC-1 and the production of NO and ET-1. (A) Rinsed platelets were incubated with DMSO or CSL (10 or 20 μM) for 3 min at 37 °C, and stimulation of ADP ((A,C) 10 μM) or U46619 ((B,D) 6 μM) was given for 6 min. The expressions of P-selectin and PAC-1 (A,B) and the production of NO and ET-1 (C,D) were measured as described in the Methods section. Data are shown as mean values ± SD of five independent experiments. * p < 0.05 vs. (A,C) ADP or (B,D) U46619 alone. D = 0.2% DMSO, used as the vehicle control.
PAC-1 and P-selectin expression levels were assessed by modifying accepted techniques. Briefly, 20 μL of DMSO or CSL (10 to 20 μM) were incubated with 0.5 mL of cleaned platelets (2 × 10^8 platelets/mL) for 3 min. The platelet suspension was refrigerated at 4 °C after stimulation with ADP (10 μM) or U46619 (6 μM) for 6 min at 37 °C. Subsequently, 50 μL of the sample was mixed with activation-specific anti-PAC-1 and anti-CD61-PE in saturated concentrations, and the mixture was then incubated for 25 min in the dark to determine the expression of PAC-1. […] Finally, 5000 events were evaluated for each sample. The mean fluorescence intensities from each channel were expressed using BD Accuri C6 software (BD Biosciences, San Diego, CA, USA). […]

[1] = test system: human platelet-rich plasma (PRP); assay: In vitro agonist-induced platelet aggregation (aggregometer); format: cell-based
Protocol: Figure 3 Effects of CSL on agonist-induced platelet aggregation. Platelet-rich plasma (PRP) was preincubated for 5 min with different concentrations of CSL, Riva, or the vehicle. […] Data are shown as mean values ± SD of five independent experiments. * p < 0.05 vs. D. D = 0.2% DMSO, used as the vehicle control.
Ten fasting healthy volunteers (aged 24–28; six women and four men) who were free of allergies, cardiovascular problems, carbohydrate, or lipid metabolic abnormalities and had not taken any morning medication had their blood samples taken. None of our subjects used addictive drugs or antioxidant food supplements, and their diets were well balanced. The plasma from the blood samples was immediately spun down (1300× g for 15 min) to separate it from sodium citrate (10.9 mM) and pooled for the following investigations. Next, human blood samples were spun down at room temperature to rapidly separate the PRP. The PRP concentration was adjusted to 1 × 10^9 platelets/mL using a hemocytometer. After being rinsed once in HEPES buffer containing 1 mM CaCl2, the PRP pellet was maintained at room temperature for an additional 30 min. Then, 10 mL of the platelet samples were utilized to measure each clotting time point. The IRB of Kyungpook National University Hospital (Daegu, Republic of Korea) approved this study protocol (KNUH 2012-01-010).
CSL dissolved in DMSO was incubated with human PRP for a specified time (1, 3, 5, or 10 min). […]

PRP = assay: FXa-induced platelet aggregation; format: cell-based, human; settings: FXa 52 µg/mL; PRP preincubated 5 min
Protocol: Figure 5 Effects of CSL on the catalytic activity and production of FXa. […] Plots show the average values of five independent measurements. (B) HUVECs pre-incubated with the indicated concentrations of CSL for 10 min were stimulated with TNF-α (10 ng/mL) for 6 h and incubated with FX (175 nM) and FVIIa (10 nM) with/without anti-tissue factor antibody (25 µg/mL). The production of FXa was characterized as described in the Methods section. (C) PRP was preincubated for 5 min with different concentrations of CSL, Riva, or the vehicle. Platelet aggregation was initiated with FXa (52 µg/mL), and the platelet aggregation was recorded using an aggregometer. Data are shown as mean values ± SD of five independent experiments. * p < 0.05 vs. TNF-α alone (B) or FXa (C). D = 0.2% DMSO, used as the vehicle control.
CSL dissolved in DMSO was incubated with human PRP for a specified time (1, 3, 5, or 10 min). Next, PRP was activated by the addition of collagen (1 μg/mL), ADP (10 μM), U46619 (6 μM), or thrombin (3 U/mL), and the amount of platelet aggregation was measured using an aggregometer (Chronolog, Havertown, PA, USA).

Q: What does the source list for COc1cc(-c2cc(=O)c3c(O)c(OC)c(OC)cc3o2)ccc1O [CSL, 4,5-dihydroxy-3,6,7-trimethoxyflavone]?
A: ADP- and U46619-induced elevations in [Ca2+]i (human platelets): inhibited; expression of P-selectin and PAC-1 (platelets): reduced the expression; platelet aggregation induced by ADP ([1]; ADP 10 μM): significantly suppressed; platelet aggregation induced by U46619 ([1]; U46619 6 μM): significantly suppressed; platelet aggregation induced by collagen ([1]; collagen 1 μg/mL): significantly suppressed; platelet aggregation brought on by FXa (PRP): dramatically reduced
